Reference: US20050096564A1, “Method of distributing skin care products” (priority 2001, published 2005)

Experiments:
[1] = in vivo
Source text: The studies included non-smoking, female subjects of good health over the age of 35 years and under the age 55 years with skin type of III or less by the Fitzpatrick Skin classification. […] Acceptable subjects were chronologically enrolled in the study following a randomization code describing what treatment would be applied to which dorsal forearm. […] The subject applied a blinded emulsion designated by a letter to one dorsal forearm and an alternative emulsion with a different designation to the opposite arm, twice per day, for three weeks. […] ISF was extracted from the dorsal forearm, volar upper arm, and serum at one week (“Week 2”) and three weeks after dosing (“Week 4”) and two weeks after the cessation of dosing (“Week 6”).
ISF was extracted from both the treatment site (dorsal forearm) as well as an adjacent, untreated site volar upper arm) following one week of therapy and three weeks of therapy. Subjects ended treatment at this point and returned for a final extraction two weeks later.
The ISF collection period lasted between three and six hours, typically four hours.

[2] = Study 2: vitamin C concentration in ISF and serum of subjects taking oral vitamin supplements; assay type: in vivo, human; conditions: Study 2, Supplement Yes
Source text: The laser made four pores at each collection site.

O=C1O[C@H]([C@@H](O)CO)C(O)=C1O [Vitamin C, vitamin C]
Influence of topical application on levels at an adjacent, untreated site or the serum [1]: does not influence
Response of serum level to topical therapy [1]: did not respond
Vitamin C concentration, MEAN ([2]; Serum): 1.36
Vitamin C concentration, MEAN ([2]; Sun-exposed site ISF): 1.00
Vitamin C concentration, MEAN ([2]; Sun-protected site ISF): 1.00
